Measured values as given in publication PMC12266748, “A Xanthine Derivative With Novel Heat Shock Protein 90‐Alpha Inhibitory and Senolytic Properties” (Aging Cell, 2025).
Where two headings read alike, the source gives them in different places.

Legend:
MCF7 cells [1] = assay: Western blot of MCF7 protein expression after Tamoxifen treatment; format: cell-based, Homo sapiens; conditions: MCF7, TAM 10 μM + K5 10 μM, compared to DMSO
Description: WB was performed according to standard procedures and detected by UVITEC (Eppendorf). Densitometric analysis was performed with NIH ImageJ 1.8 software.
Western Blot. WB was performed according to standard procedures. Total protein extract was performed as in (Aiello et al. 2016). Western blot assay used 10 µg of protein extract and proteins solved by SDS-PAGE. […] Densitometric analysis was performed with NIH Image J 1.8 software (National Institutes of Health, Bethesda, MD, USA), and specific values were normalized to loading control (β-Actin).

IMR90 cells = assay: Dose-response curves on proliferating and replicative senescent IMR90 (Trypan blue cell count); format: cell-based; conditions: for EC50: Homo sapiens, IMR-90
Description: IMR90 and WI38 lung fibroblasts were purchased from ECACC‐Merck. Human bone marrow (BM)‐derived mesenchymal stromal cells (MSCs) were purchased from Lonza. Human umbilical vein endothelial cells (HUVECs) are primary cells obtained from a pool of donors purchased from Clonetics (Lonza). Murine ear fibroblasts (MearFs) were obtained from C57BL/6J mice maintained in the INRCA “Specific Pathogen Free” (SPF) animal facility. MCF7 breast cancer cells were purchased from ATCC. For dose–response curves, IMR90 and WI38 were induced to senescence through replicative passages; MSCs, HUVECs, and MearFs senescence was induced with Doxorubicin; MCF7 senescence was induced with 4‐Hydroxytamoxifen (Lee et al. [2014]). The EC50 was calculated using GraphPad Prism 10 software. All treatment specifications are reported in the extended section.
Cell culture and treatment. IMR90 cells (Homo sapiens, fetal lung, fibroblast) and WI38 cells (Homo sapiens, fetal lung, fibroblast) were purchased from ECACC-Merck (Merck, Darmstadt, Germany) and cultured in MEM medium (Euroclone, Milano, Italy) supplemented with 1% L-Glutamine (Euroclone, Milano, Italy), 1% Penicillin-Streptomycin (Euroclone, Milano, Italy), and 10% Fetal Bovine Serum (FBS, Euroclone, Milano, Italy), at 37°C, 5% CO2. IMR90 cells with a population doubling (PD) from PD15 to PD23 were used; cells were considered incrementally senescent from passage PD19 to passage PD23. WI38 cells were used from PD26 to PD53. Cells were considered incrementally senescent from passage PD49 to passage PD53. For the compounds in vitro screening, IMR90 cells with passages from PD15 to PD23 were tested at increasing concentrations of 0.5 μM, 1 μM, 10 μM, and 25 μM over 24 and 48 h to evaluate the compounds' efficacy and cytotoxicity compared to the Vehicle (DMSO ≤ 0.1%). Cells were counted manually, in triplicate, using Trypan blue reagent (Euroclone) and disposable Bürker chambers. […] K5 dose-response proliferation curves were performed with compound K5 (Molport, SIA, Riga, Latvia) in concentrations 0.1, 0.5, 1, 5, 10, 50, 100, and 200 μM for 48 h. Cells were counted using a Trypan blue reagent and EVAplus cell counter. The EC50s were calculated by analyzing the data using GraphPad Prism 10 software.
MCF7 cell line (ATCC; HTB-22, Homo sapiens, breast cancer) was purchased from ATCC; cells were grown in MEM medium (Corning, New York, USA, #15-010-CVR) supplemented with 10% FBS (Gibco, Invitrogen, Carlsbad, CA, USA, #10270106), 1% glutamine (Corning #25005-CI), 1% penicillin and streptomycin (Corning #30002-CI). Cells were incubated at 37 °C with 5% CO2. Senescent status induction: MCF7 were plated 24 h before the treatment with 4-Hydroxytamoxifen (TAM) 10 μM to induce the senescence described by (Lee et al. 2014). Control cultures were treated with equal volumes of 75% ethanol as the vehicle. The treatment with TAM lasts 96 h, after which the cells have been washed and treated with the senolytic drugs K5 10 µM for another 96 h. The treatment with the senolytic compounds has been renewed at 48 h. Cell mortality and vitality curves after treatment with K5 (10 μM, orange) or Vehicle (DMSO, grey) were monitored using the Incucyte live-cell Analysis system (Sartorius, Goettingen, Germany). The estimated Senolytic index (SI) was calculated as the ratio between the EC50 in proliferating cells and the EC50 in senescent cells, extrapolated using GraphPad Prism 10 software.

MCF7 cells [2] = assay: SA-β-galactosidase colorimetric assay on Tamoxifen-treated MCF7; format: cell-based, Homo sapiens
Description: Previously treated cells were fixed according to the protocols established by the supplier (Cell Signaling). The images were acquired using an optical microscope (Leica) with 5× and 10× magnification (MAG) or the phase microscopy EVOS XL Core at 10× MAG and analyzed using the ImageJ software. The mean signal intensity was then normalized for the total number of cells.
MCF7 cell line (ATCC; HTB-22, Homo sapiens, breast cancer) was purchased from ATCC; cells were grown in MEM medium (Corning, New York, USA, #15-010-CVR) supplemented with 10% FBS (Gibco, Invitrogen, Carlsbad, CA, USA, #10270106), 1% glutamine (Corning #25005-CI), 1% penicillin and streptomycin (Corning #30002-CI). Cells were incubated at 37 °C with 5% CO2. […] Cell mortality and vitality curves after treatment with K5 (10 μM, orange) or Vehicle (DMSO, grey) were monitored using the Incucyte live-cell Analysis system (Sartorius, Goettingen, Germany). The estimated Senolytic index (SI) was calculated as the ratio between the EC50 in proliferating cells and the EC50 in senescent cells, extrapolated using GraphPad Prism 10 software.
β-galactosidase colorimetric assay. […] The images were analyzed using the ImageJ software, quantifying the colorimetric signal emitted by each cell. […]

## Cc1ccccc1-n1c(=O)n(Cc2ccccc2)c(=O)c2[nH]cnc21 [Compound K5, 1-benzyl-3-(2-methylphenyl)-7H-purine-2,6-dione]
MCF7 cells [1]
  Caspase 3 protein level: further increased
IMR90 cells; IMR90, Replicative/passages, read-out: EC50 senescent cells
  EC50: 380 nM
IMR90 cells; IMR90, read-out: EC50 proliferating cells
  EC50: > 500000 nM
IMR90 cells; IMR90, Replicative/passages
  Senolytic evidence (no, partly/yes): Yes
IMR90 cells; IMR90, SI = EC50 in proliferating cells/EC50 senescent cells
  Senolytic index (estimated): > 1320
IMR90 cells; proliferating IMR90 (PD15), 100 nM to 200 μM, 48 h
  toxicity in proliferating cells: no evident toxicity
MCF7 cells [2]; MCF7, TAM 10 μM 96 h then K5 10 μM 24 to 96 h, Vehicle 40%
  SA-β-gal positive senescent cells: 10%
MCF7 cells [2]; Tamoxifen-induced senescent MCF7
  reduced SA-β-gal: 30%
